US9902736B2, “1-oxo/acylation-14-acylated oridonin derivative, preparation method therefor and application thereof” (HANGZHOU BENSHENG PHARMACEUTICAL CO., LTD., priority 2012, dated 2018)
Values after ≈ are worked out from the molar mass of the structure shown.

The compounds below were run on K562/ADR (assay: Leukemia cell growth inhibition, MTT, 72 h). Conditions: Homo sapiens.
Assay type: cell-based
Description: (§1) Leukemia cell lines: leukemia cell lines: K562/adr (drug-resistant, chronic myeloid leukemia, CML), NB4 (acute promyelocytic leukemia, AML), Kasumi-1 (acute myeloid leukemia M2 type, AML-M2), Jurkat (acute lymphoblastic leukemia, ALL), all of which were donated by Cancer Research Institute of Zhejiang University, China; and H9 (acute lymphoblastic leukemia, ALL), which was purchased from China Center for Type Culture Collection.
(§2) 6000 well-growing leukemia cells were obtained and inoculated into wells of a 96-well cell culture plate. […] On the next day, the 1-oxo/acylated-14-acylated oridonin derivatives of different concentrations were added and mixed uniformly. The plate was placed in a carbon dioxide cell incubator (5% CO2) at 37° C. and was incubated for 72 hours. Then the viable cell concentration was determined by MTT method.

IC50	IC90	SMILES
0.75 µg/mL (≈ 1.6 µM)	2.35 µg/mL (≈ 5.03 µM)	C=C1C(=O)[C@]23[C@H](OC(=O)c4cccnc4)[C@H]1CC[C@H]2[C@@]12CO[C@@]3(O)[C@@H](O)[C@@H]1C(C)(C)CCC2=O [BS-OR-011]

The compounds below were run on Kasumi-1 (assay: Leukemia cell growth inhibition, MTT, 72 h). Conditions: Homo sapiens.
Assay type: cell-based
Description: as §1, §2

IC50	IC90	SMILES
1.03 µg/mL (≈ 2.2 µM)	1.94 µg/mL (≈ 4.15 µM)	C=C1C(=O)[C@]23[C@H](OC(=O)c4cccnc4)[C@H]1CC[C@H]2[C@@]12CO[C@@]3(O)[C@@H](O)[C@@H]1C(C)(C)CCC2=O [BS-OR-011]

What follows are compounds tested on H9 (assay: Leukemia cell growth inhibition, MTT, 72 h). Conditions: Homo sapiens, H9; 72 h, MTT.
Assay type: cell-based, human
Description: as §1, §2

IC50	IC90	SMILES
0.56 µg/mL (≈ 1.2 µM)	1.23 µg/mL (≈ 2.63 µM)	C=C1C(=O)[C@]23[C@H](OC(=O)c4cccnc4)[C@H]1CC[C@H]2[C@@]12CO[C@@]3(O)[C@@H](O)[C@@H]1C(C)(C)CCC2=O [BS-OR-011]

The compounds below were run on Jurkat (assay: Leukemia cell growth inhibition, MTT, 72 h). Conditions: Homo sapiens, Jurkat; 72 h, MTT.
Assay type: cell-based, human
Description: as §1, §2

IC50	IC90	SMILES
0.87 µg/mL (≈ 1.86 µM)	5.24 µg/mL (≈ 11.2 µM)	C=C1C(=O)[C@]23[C@H](OC(=O)c4cccnc4)[C@H]1CC[C@H]2[C@@]12CO[C@@]3(O)[C@@H](O)[C@@H]1C(C)(C)CCC2=O [BS-OR-011]

Each compound was assayed on NB4 (assay: Leukemia cell growth inhibition, MTT, 72 h). Conditions: Homo sapiens, NB-4; 72 h, MTT.
Assay type: cell-based, human
Description: as §1, §2

IC50	IC90	SMILES
0.27 µg/mL (≈ 0.578 µM)	0.9 µg/mL (≈ 1.93 µM)	C=C1C(=O)[C@]23[C@H](OC(=O)c4cccnc4)[C@H]1CC[C@H]2[C@@]12CO[C@@]3(O)[C@@H](O)[C@@H]1C(C)(C)CCC2=O [BS-OR-011]

Each compound was assayed on RPMI 8226 (assay: Multiple myeloma cell growth inhibition, MTT, 72 h). Conditions: Homo sapiens.
Assay type: cell-based
Description: Multiple myeloma cell lines: RPMI8226 (multiple myeloma), purchased from Fuxiang Bio-tech Co. Ltd., Shanghai, China.
as §2, with “well-growing” for “well-growing leukemia”, “and” for “and was”

IC50	IC90	SMILES
0.9 µg/mL (≈ 1.93 µM)	1.93 µg/mL (≈ 4.13 µM)	C=C1C(=O)[C@]23[C@H](OC(=O)c4cccnc4)[C@H]1CC[C@H]2[C@@]12CO[C@@]3(O)[C@@H](O)[C@@H]1C(C)(C)CCC2=O [BS-OR-011]

Each compound was assayed on CNE (assay: Solid tumor cell growth inhibition, MTT, 72 h). Conditions: Homo sapiens, CNE; 72 h, MTT.
Assay type: cell-based, human
Description: (§3) 6000 well-growing human solid tumor cells were obtained and inoculated into wells of a 96-well cell culture plate. The culture medium was DMEM High Glucose cell culture medium containing 10% fetal bovine serum. The plate was placed in a carbon dioxide cell incubator (5% CO2) at 37° C. and incubated for 24 hours. After added with 1-oxo/acylated-14-acylated oridonin derivatives of different concentration and mixed uniformly, the plate was placed in a carbon dioxide cell incubator (5% CO2) at 37° C. and incubated for 72 hours. Then the viable cell concentration was determined by MTT method.

IC50	IC90	SMILES
2.26 µg/mL (≈ 4.83 µM)	8.1 µg/mL (≈ 17.3 µM)	C=C1C(=O)[C@]23[C@H](OC(=O)c4cccnc4)[C@H]1CC[C@H]2[C@@]12CO[C@@]3(O)[C@@H](O)[C@@H]1C(C)(C)CCC2=O [BS-OR-011]

These compounds were tested on Hela (assay: Solid tumor cell growth inhibition, MTT, 72 h). Conditions: Homo sapiens, HeLa; 72 h, MTT.
Assay type: cell-based, human
Description: as §3

IC50	IC90	SMILES
2.53 µg/mL (≈ 5.41 µM)	6.79 µg/mL (≈ 14.5 µM)	C=C1C(=O)[C@]23[C@H](OC(=O)c4cccnc4)[C@H]1CC[C@H]2[C@@]12CO[C@@]3(O)[C@@H](O)[C@@H]1C(C)(C)CCC2=O [BS-OR-011]

The compounds below were run on Hep-2 (assay: Solid tumor cell growth inhibition, MTT, 72 h). Conditions: Homo sapiens, HEp-2; 72 h, MTT.
Assay type: cell-based, human
Description: as §3

IC50	IC90	SMILES
3.8 µg/mL (≈ 8.13 µM)	14.1 µg/mL (≈ 30.1 µM)	C=C1C(=O)[C@]23[C@H](OC(=O)c4cccnc4)[C@H]1CC[C@H]2[C@@]12CO[C@@]3(O)[C@@H](O)[C@@H]1C(C)(C)CCC2=O [BS-OR-011]

The compounds below were run on MGC-803 (assay: Solid tumor cell growth inhibition, MTT, 72 h). Conditions: Homo sapiens, MGC-803; 72 h, MTT.
Assay type: cell-based, human
Description: as §3

IC50	IC90	SMILES
1.6 µg/mL (≈ 3.42 µM)	11.9 µg/mL (≈ 25.5 µM)	C=C1C(=O)[C@]23[C@H](OC(=O)c4cccnc4)[C@H]1CC[C@H]2[C@@]12CO[C@@]3(O)[C@@H](O)[C@@H]1C(C)(C)CCC2=O [BS-OR-011]

The compounds below were run on A549 (assay: Solid tumor cell growth inhibition, MTT, 72 h). Conditions: Homo sapiens.
Assay type: cell-based
Description: as §3

IC50	IC90	SMILES
5.58 µg/mL (≈ 11.9 µM)	9.47 µg/mL (≈ 20.3 µM)	C=C1C(=O)[C@]23[C@H](OC(=O)c4cccnc4)[C@H]1CC[C@H]2[C@@]12CO[C@@]3(O)[C@@H](O)[C@@H]1C(C)(C)CCC2=O [BS-OR-011]

Each compound was assayed on Becap-37 (assay: Solid tumor cell growth inhibition, MTT, 72 h). Conditions: Homo sapiens.
Assay type: cell-based
Description: as §3

IC50	IC90	SMILES
1.96 µg/mL (≈ 4.19 µM)	6.11 µg/mL (≈ 13.1 µM)	C=C1C(=O)[C@]23[C@H](OC(=O)c4cccnc4)[C@H]1CC[C@H]2[C@@]12CO[C@@]3(O)[C@@H](O)[C@@H]1C(C)(C)CCC2=O [BS-OR-011]

What follows are compounds tested on CaEs-17 (assay: Solid tumor cell growth inhibition, MTT, 72 h). Conditions: Homo sapiens, CaEs17.
Assay type: cell-based
Description: as §3

IC50	IC90	SMILES
1.41 µg/mL (≈ 3.02 µM)	5.24 µg/mL (≈ 11.2 µM)	C=C1C(=O)[C@]23[C@H](OC(=O)c4cccnc4)[C@H]1CC[C@H]2[C@@]12CO[C@@]3(O)[C@@H](O)[C@@H]1C(C)(C)CCC2=O [BS-OR-011]

What follows are compounds tested on Hep G2 (assay: Solid tumor cell growth inhibition, MTT, 72 h). Conditions: Homo sapiens, HepG2.
Assay type: cell-based
Description: as §3

IC50	IC90	SMILES
2.53 µg/mL (≈ 5.41 µM)	12.6 µg/mL (≈ 27 µM)	C=C1C(=O)[C@]23[C@H](OC(=O)c4cccnc4)[C@H]1CC[C@H]2[C@@]12CO[C@@]3(O)[C@@H](O)[C@@H]1C(C)(C)CCC2=O [BS-OR-011]

Each compound was assayed on MG-63 (assay: Solid tumor cell growth inhibition, MTT, 72 h). Conditions: Homo sapiens.
Assay type: cell-based
Description: as §3

IC50	IC90	SMILES
0.74 µg/mL (≈ 1.58 µM)	3.01 µg/mL (≈ 6.44 µM)	C=C1C(=O)[C@]23[C@H](OC(=O)c4cccnc4)[C@H]1CC[C@H]2[C@@]12CO[C@@]3(O)[C@@H](O)[C@@H]1C(C)(C)CCC2=O [BS-OR-011]

These compounds were tested on PANC-1 (assay: Solid tumor cell growth inhibition, MTT, 72 h). Conditions: Homo sapiens.
Assay type: cell-based
Description: as §3

IC50	IC90	SMILES
2.99 µg/mL (≈ 6.4 µM)	7.92 µg/mL (≈ 16.9 µM)	C=C1C(=O)[C@]23[C@H](OC(=O)c4cccnc4)[C@H]1CC[C@H]2[C@@]12CO[C@@]3(O)[C@@H](O)[C@@H]1C(C)(C)CCC2=O [BS-OR-011]

The compounds below were run on PC-3 (assay: Solid tumor cell growth inhibition, MTT, 72 h). Conditions: Homo sapiens.
Assay type: cell-based
Description: as §3

IC50	IC90	SMILES
2.53 µg/mL (≈ 5.41 µM)	4.87 µg/mL (≈ 10.4 µM)	C=C1C(=O)[C@]23[C@H](OC(=O)c4cccnc4)[C@H]1CC[C@H]2[C@@]12CO[C@@]3(O)[C@@H](O)[C@@H]1C(C)(C)CCC2=O [BS-OR-011]

What follows are compounds tested on RKO (assay: Solid tumor cell growth inhibition, MTT, 72 h). Conditions: Homo sapiens.
Assay type: cell-based
Description: as §3

IC50	IC90	SMILES
0.59 µg/mL (≈ 1.26 µM)	1.44 µg/mL (≈ 3.08 µM)	C=C1C(=O)[C@]23[C@H](OC(=O)c4cccnc4)[C@H]1CC[C@H]2[C@@]12CO[C@@]3(O)[C@@H](O)[C@@H]1C(C)(C)CCC2=O [BS-OR-011]

These compounds were tested on SK-OV-3 (assay: Solid tumor cell growth inhibition, MTT, 72 h). Conditions: Homo sapiens, SK-OV-3; 72 h, MTT; read-out: IC50 SK-OV-3.
Assay type: cell-based
Description: as §3

IC50	SMILES
2.53 µg/mL (≈ 5.41 µM)	C=C1C(=O)[C@]23[C@H](OC(=O)c4cccnc4)[C@H]1CC[C@H]2[C@@]12CO[C@@]3(O)[C@@H](O)[C@@H]1C(C)(C)CCC2=O [BS-OR-011]

Same assay, conditions: Homo sapiens, SK-OV-3; 72 h, MTT; read-out: IC90 SK-OV-3

IC90	SMILES
4.87 µg/mL (≈ 10.4 µM)	C=C1C(=O)[C@]23[C@H](OC(=O)c4cccnc4)[C@H]1CC[C@H]2[C@@]12CO[C@@]3(O)[C@@H](O)[C@@H]1C(C)(C)CCC2=O [BS-OR-011]

Each compound was assayed on U87-MG (assay: Solid tumor cell growth inhibition, MTT, 72 h). Conditions: Homo sapiens, U-87 MG.
Assay type: cell-based
Description: as §3

IC50	IC90	SMILES
1.17 µg/mL (≈ 2.5 µM)	3.29 µg/mL (≈ 7.04 µM)	C=C1C(=O)[C@]23[C@H](OC(=O)c4cccnc4)[C@H]1CC[C@H]2[C@@]12CO[C@@]3(O)[C@@H](O)[C@@H]1C(C)(C)CCC2=O [BS-OR-011]
